This passage reports CC50 and EC50 results from patent US9814739B2, “2′-ethynyl nucleoside derivatives for treatment of viral infections” (priority 2012, dated 2017).

A word on the EC50: it is the concentration at which the effect is half-maximal.

Like-named read-outs stand apart in the source and are kept apart here.

Data set [1] has as its system Replicon cells, expressing the GT1b HCV luciferase replicon.
The subject of data set [2] is GT1b HCV luciferase replicon. The data set can be described thus: HCV replicon antiviral EC50 assay. In kind it is cell-based, Hepatitis C virus. (In antiviral work, replicon cells carry a viral genome segment that copies itself.)
A further data set in a line: in vitro. The following applies: for CC50: HCV GT1b CC50 (uM).
Where [3] appears, read: Hepatitis C virus, GT1B, 72 h, read-out: HCV GT1b EC50 (uM).

The molecule `C#C[C@@]1(O)[C@H](O)[C@@H](COP(=O)(N[C@@H](C)C(=O)OC(C)C)Oc2ccccc2)O[C@H]1n1ccc(N)nc1=O` (single isomer, unassigned) [1.30 (peak 1)] registered a CC50 in data set [1] greater than 25000 nM. The EC50 in data set [2] (read-out: HCV GT1b EC50) came to 44.9 µM.

In data set [1], `C#C[C@@]1(O)[C@H](O)[C@@H](COP(=O)(N[C@@H](C)C(=O)OCC)Oc2ccccc2)O[C@H]1n1ccc(=O)[nH]c1=O` (single isomer, unassigned) [1.36 (peak 1)] had a CC50 greater than 25000 nM. Besides, the EC50 in data set [2] (read-out: HCV GT1b EC50) was 0.103 µM.

On to `C#C[C@@]1(O)[C@H](O)[C@@H](COP(=O)(N[C@@H](C)C(=O)OC(C)C)Oc2ccccc2)O[C@H]1n1ccc(OC)nc1=O` (single isomer, unassigned) [1.28 (peak 2)], for which the half-maximal effective concentration (EC50) in data set [2] (setting [3]) was greater than 100 µM. Further, in “in vitro”, the CC50 was greater than 25 µM.

On to `C#C[C@@]1(O)[C@H](O)[C@@H](COP(=O)(N[C@@H](C)C(=O)OC)Oc2ccccc2)O[C@H]1n1ccc(=O)[nH]c1=O` (single isomer, unassigned) [1.35 (peak 1)], for which, in data set [1], the CC50 is greater than 25000 nM. In addition, the EC50 in data set [2] (read-out: HCV GT1b EC50) is 0.294 µM.

Turning to `C#C[C@@]1(O)[C@H](O)[C@@H](COP(=O)(NCCOC(=O)c2ccccc2)Oc2ccccc2)O[C@H]1n1ccc(=O)[nH]c1=O` (single isomer, unassigned) [1.18 (peak 2)], the EC50 in data set [2] (setting [3]) was determined as 0.089 µM. In the data set “in vitro”, the CC50 was greater than 25 µM.

Consider `C#C[C@@]1(O)[C@H](O)[C@@H](COP(=O)(NC(C)(C)C(=O)OCC)Oc2ccccc2)O[C@H]1n1ccc(=O)[nH]c1=O` (single isomer, unassigned) [1.37 (peak 2)], for which the EC50 in data set [2] (setting [3]) is 0.478 µM. The CC50 in the data set “in vitro” is greater than 25 µM.

As to `C#C[C@@]1(O)[C@H](O)[C@@H](COP(=O)(N[C@@H](C)C(=O)OCC)Oc2ccccc2)O[C@H]1n1ccc(=O)[nH]c1=O` (single isomer, unassigned) [1.36 (peak 2)], the EC50 in data set [2] (setting [3]) stood at 0.096 µM. For the same molecule, the CC50 in the data set “in vitro” was greater than 25 µM.

For `C#C[C@@]1(O)[C@H](O)[C@@H](COP(=O)(N[C@@H](C)C(=O)O[C@@H](C)CC)Oc2ccccc2)O[C@H]1n1ccc(=O)[nH]c1=O` (single isomer, unassigned) [1.13 (peak 2)], the EC50 in data set [2] (read-out: HCV GT1b EC50) was determined as 0.025 µM. Further, in the data set “in vitro”, the CC50 is greater than 25 µM.

Turning to `C#C[C@@]1(O)[C@H](O)[C@@H](COP(=O)(N[C@@H](C)C(=O)OC(CC)CC)Oc2ccccc2)O[C@H]1n1ccc(=O)[nH]c1=O` (single isomer, unassigned) [1.16 (peak 2)], the EC50 in data set [2] (read-out: HCV GT1b EC50) is 0.056 µM. The molecule further displayed a CC50 in the data set “in vitro” greater than 25 µM.

Consider `C#C[C@@]1(O)[C@H](O)[C@@H](COP(=O)(N[C@@H](CC(C)C)C(=O)OC(C)C)Oc2ccccc2)O[C@H]1n1ccc(=O)[nH]c1=O` (single isomer, unassigned) [1.23 (peak 2)], for which the EC50 in data set [2] (read-out: HCV GT1b EC50) was 0.305 µM. Also, the CC50 in “in vitro” was greater than 25 µM.

In the case of `C#C[C@@]1(O)[C@H](O)[C@@H](COP(=S)(N[C@@H](C)C(=O)OC(C)C)Oc2ccccc2)O[C@H]1n1ccc(=O)[nH]c1=O` (stereo partly drawn) [Example 1.19, (2S)-isopropyl 2-(((((2R,3R,4R,5R)-5-(2,4-dioxo-3,4-dihydropyrimidin-1(2H)-yl)-4-ethynyl-3,4-dihydroxytetrahydrofuran-2-yl)methoxy)(phenoxy)phosphorothioyl)amino)propanoate], in data set [2] (setting [3]), the EC50 came to 0.036 µM. The CC50 at 3 days in “in vitro” is greater than 25000 nM.

With `C#C[C@@]1(O)[C@H](O)[C@@H](COP(=O)(N[C@@H](C)C(=O)OC(C)C)Oc2ccccc2)O[C@H]1n1ccc(N)nc1=O` (single isomer, unassigned) [1.30 (peak 2)], the EC50 in data set [2] (setting [3]) came to 54.3 µM. In “in vitro”, the CC50 was greater than 25 µM.

With `C#C[C@@]12OC(=O)O[C@@H]1[C@@H](COP(=O)(N[C@@H](C)C(=O)OC(C)C)Oc1ccccc1)O[C@H]2n1ccc(=O)[nH]c1=O` (stereo partly drawn) [Example 1.22, (2S)-isopropyl 2-(((((3aR,4R,6R,6aR)-6-(2,4-dioxo-3,4-dihydropyrimidin-1(2H)-yl)-6a-ethynyl-2-oxotetrahydrofuro[3,4-d][1,3]dioxol-4-yl)methoxy)(phenoxy)phosphoryl)amino)propanoate], the EC50 in data set [2] (setting [3]) stood at 0.108 µM. In addition, the CC50 in “in vitro” is greater than 25 µM.

As to `C#C[C@@]1(O)[C@H](O)[C@@H](COP(=O)(N[C@@H](C)C(=O)OC2CCC2)Oc2ccccc2)O[C@H]1n1ccc(=O)[nH]c1=O` (single isomer, unassigned) [1.11 (peak 2)], the EC50 in data set [2] (setting [3]) is 0.058 µM. In “in vitro”, this molecule came in with a CC50 greater than 25 µM.

Take `C#C[C@@]1(O)[C@H](O)[C@@H](COP(=O)(N[C@@H](C)C(=O)OC(CCC)CCC)Oc2ccccc2)O[C@H]1n1ccc(=O)[nH]c1=O` (single isomer, unassigned) [1.34 (peak 2)]: the EC50 in data set [2] (setting [3]) stood at 0.151 µM. This molecule displayed a CC50 in the data set “in vitro” greater than 25 µM.

For the molecule `C#C[C@@]1(O)[C@H](O)[C@@H](COP(=O)(N[C@@H](C)C(=O)OC2CCCC2)Oc2ccccc2)O[C@H]1n1ccc(=O)[nH]c1=O` (single isomer, unassigned) [1.31 (peak 2)], the concentration giving a half-maximal response (EC50) in data set [2] (read-out: HCV GT1b EC50) was determined as 0.006 µM. This molecule also gave a CC50 in the data set “in vitro” greater than 25 µM.

On to `C#C[C@@]1(O)[C@H](O)[C@@H](COP(=O)(NC(C)(C)C(=O)OC(C)C)Oc2ccccc2)O[C@H]1n1ccc(=O)[nH]c1=O` (single isomer, unassigned) [1.39 (peak 2)], for which the EC50 in data set [2] (read-out: HCV GT1b EC50) is 0.047 µM. The same molecule yielded a CC50 in the data set “in vitro” greater than 25 µM.

For the molecule `C#C[C@@]1(O)[C@H](OC(C)=O)[C@@H](COP(=O)(N[C@@H](C)C(=O)OC(C)C)Oc2ccccc2)O[C@H]1n1ccc(=O)[nH]c1=O` (stereo partly drawn) [Example 1.21, (2S)-isopropyl 2-(((((2R,3R,4R,5R)-3-acetoxy-5-(2,4-dioxo-3,4-dihydropyrimidin-1(2H)-yl)-4-ethynyl-4-hydroxytetrahydrofuran-2-yl)methoxy)(phenoxy)phosphoryl)amino)propanoate], the EC50 in data set [2] (setting [3]) came to 0.067 µM. For the same molecule, in the data set “in vitro”, the CC50 was greater than 25 µM.

As to `C#C[C@@]1(O)[C@H](O)[C@@H](COP(=O)(N[C@@H](C)C(=O)OC2CCCCC2)Oc2ccccc2)O[C@H]1n1ccc(=O)[nH]c1=O` (stereo partly drawn) [Example 1.12, (2S)-cyclohexyl 2-(((((2R,3R,4R,5R)-5-(2,4-dioxo-3,4-dihydropyrimidin-1(2H)-yl)-4-ethynyl-3,4-dihydroxytetrahydrofuran-2-yl)methoxy)(phenoxy)phosphoryl)amino)propanoate], the EC50 in data set [2] (setting [3]) came to 0.013 µM. In the data set “in vitro”, this molecule showed a CC50 greater than 25 µM.

As for `C#C[C@]1(O)[C@H](n2ccc(=O)[nH]c2=O)O[C@@](CO[P@@](=O)(N[C@@H](C)C(=O)OC(C)C)Oc2ccccc2)(N=[N+]=[N-])[C@H]1O` [Example 1.26, (2S)-isopropyl 2-(((((2R,3S,4R,5R)-2-azido-5-(2,4-dioxo-3,4-dihydropyrimidin-1(2H)-yl)-4-ethynyl-3,4-dihydroxytetrahydrofuran-2-yl)methoxy)(phenoxy)phosphoryl)amino)propanoate], in data set [2] (setting [3]), the EC50 came to 1.44 µM. Besides, the CC50 in the data set “in vitro” was greater than 25 µM.

For `C#C[C@@]1(O)[C@H](O)[C@@H](COP(=O)(N[C@@H](C)C(=O)OC2CCOCC2)Oc2ccccc2)O[C@H]1n1ccc(=O)[nH]c1=O` (single isomer, unassigned) [1.14 (peak 2)], the EC50 in data set [2] (read-out: HCV GT1b EC50) worked out at 0.459 µM. In “in vitro”, this molecule yielded a CC50 greater than 25 µM.

In the case of `C#C[C@@]1(O)[C@H](O)[C@@H](COP(=O)(O)N[C@@H](C)C(=O)O)O[C@H]1n1ccc(=O)[nH]c1=O` [Example 1.40, (2S)-2-(((((2R,3R,4R,5R)-5-(2,4-dioxo-3,4-dihydropyrimidin-1(2H)-yl)-4-ethynyl-3,4-dihydroxytetrahydrofuran-2-yl)methoxy)(hydroxy)phosphoryl)amino)propanoic acid], the EC50 in data set [2] (Hepatitis C virus, 72 h, GT1b replicon cells, 3 days, luciferase, read-out: HCV GT1b EC50) worked out at 0.148 µM. Besides, in the data set “in vitro”, the CC50 is greater than 25 µM.

In the case of `C#C[C@@]1(O)[C@H](O)[C@@H](COP(=O)(N[C@@H](CCC)C(=O)OC(C)C)Oc2ccccc2)O[C@H]1n1ccc(=O)[nH]c1=O` (single isomer, unassigned) [1.24 (peak 2)], in data set [2] (read-out: HCV GT1b EC50), the EC50 was determined as 0.062 µM. In “in vitro”, this molecule registered a CC50 greater than 25 µM.

Turning to `C#C[C@@]1(O)[C@H](O)[C@@H](COP(=O)(N[C@@H](CC)C(=O)OC(C)C)Oc2ccccc2)O[C@H]1n1ccc(=O)[nH]c1=O` (single isomer, unassigned) [1.38 (peak 2)], the EC50 in data set [2] (setting [3]) came to 0.54 µM. Moreover, the CC50 in “in vitro” is greater than 25 µM.

As for `C#C[C@@]1(O)[C@H](O)[C@@H](COP(=O)(N[C@@H](C)C(=O)OCOC(C)=O)Oc2ccccc2)O[C@H]1n1ccc(=O)[nH]c1=O` (single isomer, unassigned) [1.17 (peak 2)], the EC50 in data set [2] (setting [3]) is 9.09 µM. The same molecule had a CC50 in “in vitro” greater than 25 µM.

In the case of `C#C[C@@]1(O)[C@H](O)[C@@H](COP(=O)(N[C@@H](C)C(=O)O[C@H](C)CC)Oc2ccccc2)O[C@H]1n1ccc(=O)[nH]c1=O` (single isomer, unassigned) [1.15 (peak 2)], the EC50 in data set [2] (read-out: HCV GT1b EC50) was determined as 0.029 µM. The molecule also yielded a CC50 in “in vitro” greater than 25 µM.

As to `C#C[C@@]1(O)[C@H](O)[C@@H](COP(=O)(N[C@@H](C)C(=O)OCC(C)(C)C)Oc2ccccc2)O[C@H]1n1ccc(=O)[nH]c1=O` (single isomer, unassigned) [1.33 (peak 2)], the EC50 in data set [2] (read-out: HCV GT1b EC50) came out at 0.994 µM. The same molecule yielded a CC50 in “in vitro” greater than 25 µM.

For the molecule `C#C[C@@]1(O)[C@H](O)[C@@H](COP(=O)(N[C@@H](C)C(=O)OC)Oc2ccccc2)O[C@H]1n1ccc(=O)[nH]c1=O` (single isomer, unassigned) [1.35 (peak 2)], the EC50 in data set [2] (setting [3]) came to 0.194 µM. Moreover, in “in vitro”, the CC50 was greater than 25 µM.

As for `C#C[C@@]1(O)[C@H](O)[C@@H](COP(=O)(N[C@@H](Cc2ccccc2)C(=O)OC(C)C)Oc2ccccc2)O[C@H]1n1ccc(=O)[nH]c1=O` (single isomer, unassigned) [1.10 (peak 2)], the EC50 in data set [2] (read-out: HCV GT1b EC50) turned out to be 0.023 µM. The CC50 in “in vitro” was greater than 25 µM.

Take `C#C[C@@]1(O)[C@H](O)[C@@H](COP(=O)(N[C@@H](C)C(=O)OC(C)C)Oc2ccccc2)O[C@H]1n1ccc(=O)[nH]c1=O` (single isomer, unassigned) [1.25 (peak 1)]: the EC50 in data set [2] (setting [3]) was found to be 0.358 µM. In “in vitro”, this molecule gave a CC50 greater than 25 µM.

`C#C[C@@]1(O)[C@H](O)[C@@H](COP(=O)(N[C@@H](C)C(=O)OCC(C)(C)OC)Oc2ccccc2)O[C@H]1n1ccc(=O)[nH]c1=O` (single isomer, unassigned) [1.32 (peak 2)]: the EC50 in data set [2] (read-out: HCV GT1b EC50) is 0.182 µM. Further, in the data set “in vitro”, the CC50 is greater than 25 µM.
